Results reported in patent US11191775B2, “PAPD5 and PAPD7 inhibitors for treating a hepatitis B infection” (HOFFMANN-LA ROCHE INC., priority 2016, dated 2021).
Read-outs that look alike come from different tables or passages of the source.

Columns and labels:
HBV = assay: HBsAg and HBeAg secretion in HepG2.2.15 cells; format: cell-based; conditions: Hepatitis B virus, 72 h, incubated for 3 days, supernatant, CLIA ELISA
Method: To evaluate the impact on HBV antigen expression and secretion, supernatants were collected on Day 11. HBV HBsAg and HBeAg levels were measured using CLIA ELISA Kits (Autobio Diagnostic #CL0310-2, #CL0312-2), according to the manufacturer's protocol. Briefly, 25 μL of supernatant per well were transferred to the respective antibody coated microtiter plate and 25 μL of enzyme conjugate reagent were added. The plate was incubated for 60 min on a shaker at room temperature before the wells were washed five times with washing buffer using an automatic washer. 25 μL of substrate A and B were added to each well. The plates were incubated on a shaker for 10 min at room temperature before luminescence was measured using an Envision luminescence reader (Perkin Elmer).
The potency of DHQ and THP and their variants against HBV infection were measured in HepG2.2.15 cells using HBsAg and HBeAg as read out.
HepG2.2.15 cells (Sells et al 1987 Proc Natl Acad Sci USA 84, 1005-1009) were cultured in 96 well plates (15.000 cells/well in 100 uL) in DMEM+GluTaMax-1 (GiBCO Cat. NO. 10569), 1% Pen Strep (Gibco Cat. No. 15140), 10% FBS (Clontech Cat. No. 631106), Geneticin […] (Invitrogen 10131035). The compunds were tested using three-fold serial dilutions in DMSO with a top concentration of 100 μM and 9 serial dilutions. Each compound was tested in quadricate. The cells were incubated for 3 days, supernatents were collected and HBsAg and HBeAg were measured as described in the Materials and Methods section.

PAPD5 variant 1 = assay: Y3H ULTImate YChemH screen; format: binding; design: key: confidence score of A (scale A-D); conditions: prey PAPD5 variant 1; cDNA Human placenta library
Method: (§1) The two compounds were provided by Roche to HYBRIGENICS SERVICES SAS and tested for permeability and toxicity. Compounds were then screened against HYBRIGENICS's cDNA Human placenta library (PLA). The screens were carried out according to the optimized cell-to-cell mating protocol developed for Hybrigenics ULTImate Y2H™ using at different compound concentration (Table 2).
(§2) Clones obtained from the screen were picked in 96-well format and clones positive for growth under selective conditions (HIS+) were evaluated in a dependency assay using spot assays. Only clones that were able to grow on selective medium in the presence of the tagged compound were being picked up, processed (cell lysis, PCR, gene sequencing) and mapped for protein alignment using Blast analysis.
(§3) Both proteins PAPD5 (variant 1: NP_001035374; variant 2: NP_001035375) and PAPD7 (XP_005248291) were identified by a numerous number of fragments in the Y3H screen for both compounds (DHQ and THP) as described in the Materials and Method section. The identified proteins were ranked with a confidence score of A (scale A-D) by HYBRIGENICS (Table 6).

PAPD7 = assay: Y3H ULTImate YChemH screen; format: binding; design: key: confidence score of A (scale A-D); conditions: prey PAPD7; cDNA Human placenta library
Method: as §1, §2, §3

PAPD5 variant 2 = assay: Y3H ULTImate YChemH screen; format: binding; design: key: confidence score of A (scale A-D); conditions: prey PAPD5 variant 2; cDNA Human placenta library
Method: as §1, §2, §3

[1] = molecular target: T1, PAPD5 var1 (experimental fragment and full length) (Homo sapiens, UniProt Q8NDF8); assay: Y3H ULTImate YChemH competition with free compound; format: binding; conditions: probe HBX129653 or HBX129654 1 μM, free compound 0-20 μM, FIG. 3-6
T1 construct: PAPD5 var1 full length; host or cells: diploid yeast from YHGX13 (prey) x YPT6AT (DHFR hook)
Method: (§4) The competition assays were performed on selective medium at 8 concentrations of the free compound (0, 0.25, 0.5, 1, 2, 5, 10 and 20 μM) and a consistent concentration for the tagged Y3H-compound (1 μM).

[2] = molecular target: T2, PAPD7 varX1 (experimental fragment and full length) (Homo sapiens, UniProt Q5XG87); assay: Y3H ULTImate YChemH competition with free compound; format: binding; conditions: probe HBX129653 or HBX129654 1 μM, free compound 0-20 μM, FIG. 3-6
T2 construct: PAPD7 var1 full length; host or cells: diploid yeast from YHGX13 (prey) x YPT6AT (DHFR hook)
Method: as §4

[3] = system: PAPD5 variant 1 and variant 2 prey fragments; assay: Y3H ULTImate YChemH 1-by-1 validation, prey fragments; format: binding, human; conditions: PAPD5 variant 1 and 2 fragments; tested at 5, 10 and 20 μM; FIG. 1
Method: (§5) In this validation step each one identified fragment prey and one chemical probe (HBX129653, HBX129654) is tested in a 1-by-1 experiment. The plasmids from 3 selected preys from the screening library were extracted from the yeast cells, amplified in E. coli and re-transformed into YHGX13 yeast cells. For each interaction, DO1, 1/10, 1/100 and 1/1000 of the diploid yeast culture expressing both hook and prey constructs were spotted on a selective medium without tryptophan, leucine and histidine and supplemented with the chemical probe and FK506. Interactions were tested in duplicate. One plate was used per chemical compound and concentration (DMSO, 5, 10 and 20 μM of HBX129653, 5, 10 and 20 μM of HBX129654, 5 μM of HBX24786 Trimethoprim (TMP) and 5 μM of HBX129634 (TMP-PEG5-OH)). Plates were incubated at 30° C. for 3 days.
(§6) In a first validation step three fragments identified in the first screen were selected for the 1-by-1 validation assay (as described in the Materials and Method section) and tested at three different concentrations (5, 10 and 20 μM) (Table 7).

PAPD7 prey fragment = assay: as above; format: binding, human; conditions: tested at 5, 10 and 20 μM, FIG. 1
Method: as §5, §6

PAPD5 var1 full length = molecular target: T3, PAPD5 var1 full length (Homo sapiens, UniProt Q8NDF8); assay: Y3H ULTImate YChemH 1-by-1 validation, full length proteins; format: binding; conditions: tested at 5, 10 and 20 μM, FIG. 2
T3 construct: PAPD5 var1 full length; host or cells: diploid yeast from YHGX13 (prey) x YPT6AT (DHFR hook)
Excerpt: (§7) The coding sequence of full-length PAPD5var1 (NM_001040284.2) and PAPD7varX1 (XM_005248234.2) were reconstituted from an N-terminal codon-optimized gene fragment (to remove high GC content) and commercially available clones of the C-terminal regions of the proteins and cloned in frame with the Gal4 Activation Domain (AD) into plasmid pP7 (AD-Prey), derived from the original pGADGH (Bartel et al., 1993 in Cellular interactions in development: A practical approach. ed. Hartley, D. A., Oxford University Press, Oxford, pp. 153-179). The constructs were checked by sequencing the entire inserts. For each prey, a mini-mating was carried out between YHGX13 (Y187 ade2-101::IoxP-kanMX-IoxP, matα) transformed with the prey plasmids and YPT6AT yeast cells (mata) transformed with the DHFR hook (Dihydrofolate reductase) to produce a diploid yeast culture. For each interaction, DO1, 1/10, 1/100 and 1/1000 of the diploid yeast culture expressing both hook and prey constructs were spotted on a selective medium without tryptophan, leucine and histidine and supplemented with the chemical probe and FK506. Interactions were tested in duplicate. One plate was used per chemical compound and concentration (DMSO, 5, 10 and 20 μM of HBX129653, 5, 10 and 20 μM of HBX129654, 5 μM of HBX24786 Trimethoprim (TMP) and 5 μM of HBX129634 (TMP-PEG5-OH)). Plates were incubated at 30° C. for 3 days.
(§8) In a second validation step, full length proteins for PAPD5 and PAPD7 were synthesized and used for 1-by-1 validation (as described in the Materials and Method section) with DHQ and THP (Table 8).

PAPD7 var1 full length = molecular target: T4, PAPD7 var1 full length (Homo sapiens, UniProt Q5XG87); assay: as above; format: binding; conditions: tested at 5, 10 and 20 μM, FIG. 2
T4 construct: PAPD7 var1 full length; host or cells: diploid yeast from YHGX13 (prey) x YPT6AT (DHFR hook)
Excerpt: as §7, §8

hepatitis C virus (HCV) = assay: Activity against hepatitis C virus (data not shown)

T2 sequence (Q5XG87 whole entry, the tested form may be a part): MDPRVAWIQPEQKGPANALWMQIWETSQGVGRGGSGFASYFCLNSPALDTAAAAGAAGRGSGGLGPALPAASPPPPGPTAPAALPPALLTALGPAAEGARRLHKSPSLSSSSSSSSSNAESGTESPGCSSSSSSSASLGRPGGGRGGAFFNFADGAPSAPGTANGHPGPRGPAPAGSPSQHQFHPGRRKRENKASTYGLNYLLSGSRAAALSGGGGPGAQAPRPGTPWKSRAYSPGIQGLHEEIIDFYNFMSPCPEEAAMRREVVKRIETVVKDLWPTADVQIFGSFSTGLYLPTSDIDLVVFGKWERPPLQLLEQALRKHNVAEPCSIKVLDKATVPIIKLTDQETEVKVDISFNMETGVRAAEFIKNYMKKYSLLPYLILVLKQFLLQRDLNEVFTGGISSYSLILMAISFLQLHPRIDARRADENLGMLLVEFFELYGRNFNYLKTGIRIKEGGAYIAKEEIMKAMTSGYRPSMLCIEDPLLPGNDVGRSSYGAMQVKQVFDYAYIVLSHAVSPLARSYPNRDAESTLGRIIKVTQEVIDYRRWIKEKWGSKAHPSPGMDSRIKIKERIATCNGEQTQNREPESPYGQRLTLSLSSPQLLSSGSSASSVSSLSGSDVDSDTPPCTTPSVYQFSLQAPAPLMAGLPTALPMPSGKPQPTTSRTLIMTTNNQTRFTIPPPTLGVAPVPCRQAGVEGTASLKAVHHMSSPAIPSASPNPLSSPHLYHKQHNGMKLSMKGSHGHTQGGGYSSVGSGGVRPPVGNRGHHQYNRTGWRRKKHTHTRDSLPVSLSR
T1 sequence (Q8NDF8 1-698 isoform Q8NDF8-5): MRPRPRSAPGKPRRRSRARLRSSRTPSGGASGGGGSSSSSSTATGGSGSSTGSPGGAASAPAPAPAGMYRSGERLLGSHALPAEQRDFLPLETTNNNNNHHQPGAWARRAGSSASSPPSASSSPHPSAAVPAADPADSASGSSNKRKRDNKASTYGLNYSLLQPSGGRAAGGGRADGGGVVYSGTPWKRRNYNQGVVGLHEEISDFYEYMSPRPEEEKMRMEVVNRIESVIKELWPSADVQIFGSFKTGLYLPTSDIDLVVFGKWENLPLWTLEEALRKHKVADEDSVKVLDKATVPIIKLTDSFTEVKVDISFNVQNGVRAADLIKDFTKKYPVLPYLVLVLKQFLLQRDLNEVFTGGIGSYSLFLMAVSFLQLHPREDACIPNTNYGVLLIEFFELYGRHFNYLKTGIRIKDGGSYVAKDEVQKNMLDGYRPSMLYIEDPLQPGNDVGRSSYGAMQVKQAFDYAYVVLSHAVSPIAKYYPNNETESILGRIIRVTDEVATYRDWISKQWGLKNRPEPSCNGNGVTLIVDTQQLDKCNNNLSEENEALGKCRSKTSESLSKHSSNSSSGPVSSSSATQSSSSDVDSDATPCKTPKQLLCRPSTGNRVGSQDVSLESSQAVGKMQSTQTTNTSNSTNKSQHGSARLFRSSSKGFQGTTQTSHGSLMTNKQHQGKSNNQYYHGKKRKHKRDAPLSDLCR
T4 sequence (Q5XG87 whole entry): as the sequence (Q5XG87 whole entry, the tested form may be a part) above
T3 sequence (Q8NDF8 1-698 isoform Q8NDF8-5): as the sequence (Q8NDF8 1-698 isoform Q8NDF8-5) above

Row | Compound | IC50 (HBV; read-out: IC50 HBsAg) | Confidence score (PAPD5 variant 1) | Confidence score (PAPD7) | Confidence score (PAPD5 variant 2) | competition of free compound with chemical probe [1] | competition of free compound with chemical probe [2] | IC50 (HBV; read-out: IC50 HBeAg) | 1-by-1 validation of binding to prey fragments [3] | 1-by-1 validation of binding to prey fragments (PAPD7 prey fragment) | 1-by-1 validation of interaction with full length protein (PAPD5 var1 full length) | 1-by-1 validation of interaction with full length protein (PAPD7 var1 full length) | activity against hepatitis C virus (HCV) (hepatitis C virus (HCV))
1 | COc1cc2c(cc1OCCOCCOCCOCCOCCOCCOc1c(OC)cc(Cc3cnc(N)nc3N)cc1OC)C[C@@H](C(C)(C)C)n1cc(C(=O)O)c(=O)cc1-2 [HBX129653] | 1180 nM | A | A |  |  |  |  |  |  |  |  | 
2 | COc1cc(Cc2cnc(N)nc2N)cc(OC)c1OCCOCCOCCOCCOCCOCCOc1cc(N2CCc3nc(-c4ncccn4)ncc3[C@H]2C)cc(F)c1F [HBX129654] | 299 nM |  | A | A |  |  |  |  |  |  |  | 
3 | COCCCOc1cc2c(cc1OC)-c1cc(=O)c(C(=O)O)cn1[C@@H](C(C)C)C2 [INACT653] |  |  |  |  | less binding affinity | less binding affinity |  |  |  |  |  | 
4 | COc1cccc(-c2ncc3c(n2)CCN(c2cc(F)c(F)c(OC)c2)C3)n1 [INACT654] | > 25000 nM |  |  |  |  |  |  |  |  |  |  | 
5 | COCCCOc1cc2c(cc1Cl)-c1cc(=O)c(C(=O)O)cn1[C@H](C(C)C)C2 [MOL653] | 3 nM |  |  |  | competition could be observed | competition could be observed | 7 nM | specific binders | specific binders | confirmed at the lowest tested concentration | confirmed at the lowest tested concentration | inactive
6 | COc1cc(N2CCc3nc(-c4ncccn4)ncc3[C@H]2C)cc(F)c1F [MOL654] | 3 nM |  |  |  | competition could be observed | competition could be observed |  | specific binders | specific binders | confirmed at the lowest tested concentration | confirmed at the lowest tested concentration | inactive
